Measured values taken from patent publication EP4763838A1, “COMPOUND AND USE THEREOF” (Ocean University of China, priority 2023, dated 2025).
“And” between values parts separate entries of the source, which are not always exact repeats. Identical values can stand only once. Counter-ions that a name gives are not always drawn. Like-named read-outs stand apart in the source and are kept apart here.

Legend:
[1] = biological target: T1, E3 ubiquitin ligase CRBN (Homo sapiens, UniProt Q96SW2); experiment: Binding activity to E3 ubiquitin ligase CRBN (HTRF competitive binding with XL665-labeled thalidomide, Cereblon binding kit); conditions: competition with XL665-labeled thalidomide for GST-labelled CRBN protein, 3 h at room temperature
T1 construct: purchased PE (PerkinElmer) 64BDCRBNPEG
Description: The binding activity of the compound disclosed in the present patent to the E3 ubiquitin ligase CRBN was determined by competitive binding of the disclosed compound with XL665-labeled thalidomide to the CRBN protein, thereby preventing the occurrence of fluorescence resonance energy transfer (FRET). Accordingly, the binding affinity of the compound to the CRBN protein was determined.
CRBN binding activity test kit (CEREBLON BINDING KITS (PE, 64BDCRBNPEG)).
The assay was based on a homogeneous time-resolved fluorescence (HTRF) technology. When a donor and an acceptor were in close proximity, the donor transferred energy to the acceptor so that the acceptor was excited to emit an emission light 665 nm.
The donor used in the kit of the present disclosure was a europium-labeled GST antibody (GST Eu Cryptate Antibody), and the acceptor was thalidomide labeled with XL665 (Thalidomide-Red reagent). The donor bound to the CRBN protein comprising a GST label. The compound disclosed in the present patent competitively bound to the CRBN protein with thalidomide. The binding activity of the compound was determined according to the fluorescence value emitted by the acceptor at 665 nm. The stronger binding force of the compound indicated the weaker signal.
The donor and the acceptor were diluted 50-fold respectively by using a kit buffer (PROTAC binding buffer 1). The CRBN protein was diluted 45-fold. The 8 mM solution of the compound disclosed in the present patent was diluted 10-fold with 1X diluent from the kit, followed by 5-fold serial dilutions for a total of 7 consecutive dilutions.
5 µl of compound, 5 µl of diluted CRBN protein and 10 µl of donor-acceptor isovolumetric mixture were sequentially added to each well of a white 384-well plate (PE, Part number:6008280). The above system was incubated for 3 h at room temperature.
A ratio of acceptor to donor emission signals for each individual well was calculated. Ratio = signal value at 665 nm/signal value at 620 nm * 10^4 Coefficient of variation (CV) = standard deviation (SD)/average Ratio × 100 [formula]
The IC50 value was calculated based on the compound concentration, Ratio and the coefficient of variation by using GraphPad Prism. Table 10 Binding activity of compounds 1-18 to E3 ubiquitin ligase CRBN

[2] = biological target: T2, BRD protein (Homo sapiens, UniProt O60885); experiment: Reduction of bromodomain protein (BRD) expression levels in MV-4-11 cells (Western blot, DC50 and Dmax); assay type: cell-based; conditions: BRD4 Western blot, GAPDH internal reference; for DC50: 24 hours of treatment, 0.1, 1, 10 and 20 µM; for Dmax: MV4-11, 24 hours of treatment, 0.1, 1, 10 and 20 µM
T2 construct: endogenous in cells; host or cells: MV-4-11
Description: The human […] MV-4-11 cells selected in this experiment were cultured in Iscove's Modified Dulbecco's Medium (IMDM) culture medium containing 10% fetal bovine serum (Gibco, USA) in an incubator under the conditions of at 37°C, 5% CO2 and 95% humidity. When the growth density reached 80%, a culture medium containing the compound was selected, and the cells were inoculated into a 6-well plate with a cell density of 1×10^6/ml, so that the final concentrations of the compound were 0.1, 1, 10 and 20 µM. After 24 hours of treatment, the cells were collected, washed twice with PBS and lysed with an RIPA lysis buffer containing a protease inhibitor and a phosphatase inhibitor. The lysed mixed solution was centrifuged to obtain a total protein extract. The concentration of the protein in the extract was detected by using a BCA method.
Protein electrophoresis was performed via SDS-PAGE, followed by constant-current electrotransfer at 200 mA for 150 min to transfer proteins onto a polyvinylidene fluoride (PVDF) membrane. The PVDF membrane was placed in 5% skim milk and blocked for 1 h at room temperature. BRD4 (#13440, CST) (1:1000) and C-MYC (ab32072, 1:1000) were added for incubation overnight at 4°C. The membrane was washed with Tris buffered saline Tween (TBST) for 3 times, with 10 min each time. The mixture of the membrane and a secondary antibody were incubated for 60 min at room temperature. The membrane was washed with TBST for 3 times, with 10 min each time. The ECL light-emitting liquid was dropwise added for exposure. Each sample was simultaneously detected using GAPDH protein as an internal reference. The protein profile was analyzed for grayscale values using analysis software ImageJ. The gray scale correction value of each sample was calculated by using the formula was used below: gray scale correction value = (target protein gray scale value/corresponding internal reference gray scale value) × 10^3Then, the calculated gray scale correction value was compared with a control gray scale correction value to calculate a degradation rate. Then, nonlinear curve fitting was performed on a logarithmic concentration-inhibition rate using Prism to obtain the DC50 and Dmax values of the compound.
Table 13 summarizes the evaluation of the reduction effects of protein degraders PRTB-01 to 16 on BRD protein expression levels. DC50 represents the concentration of the protein degrader when it induces 50% of the BRD protein to be degraded, with the level classified as A (DC50<1 µM), B (DC50 1 to 10 µM), or C (DC50>10 µM). Dmax represents the proportion of the maximum degree of […] protein degradation induced by the protein degrader to the total amount of BRD protein, with the level graded as A (Dmax>85%), B (Dmax85~50%), or C ([…]<50%) Table 13 Evaluation of protein degraders PRTB-01 to 16 in reducing BRD protein expression levels

O=C1CCC(c2ccc(N3CCC[C@@H]3CO)nn2)C(=O)N1 (stereo partly drawn) [Compound 5, 3-(6-((R)-2-(hydroxymethyl)pyrrolidin-1-yl)pyridazin-3-yl)piperidine-2,6-dione]
IC50 [1]: 50 µM

O=C1CCC(c2ccc(N3CCC[C@H]3CO)nn2)C(=O)N1 (stereo partly drawn) [Compound 6, 3-(6-((S)-2-(hydroxymethyl)pyrrolidin-1-yl)pyridazin-3-yl)piperidine-2,6-dione]
IC50 [1]: 50 µM

O=C1CCC(c2ccc(N3CCNCC3)nn2)C(=O)N1 (stereo not shown) [Compound 7, 3-(6-(piperazin-1-yl)pyridazin-3-yl)piperidine-2,6-dione hydrochloride salt]
IC50 [1]: 50 µM

COc1ccc(C2CCC(=O)NC2=O)nn1 (stereo not shown) [Compound 8, 3-(6-methoxypyridazin-3-yl) piperidine-2,6-dione]
IC50 [1]: 50 µM

Cc1cc(N2CCNCC2)nnc1C1CCC(=O)NC1=O (stereo not shown) [Compound 9, 3-(4-methyl-6-(piperazin-1-yl)pyridazin-3-yl)piperidine-2,6-dione hydrochloride salt]
IC50 [1]: 50 µM

O=C1CCC(c2nnc(N3CCNCC3)cc2F)C(=O)N1 (stereo not shown) [Compound 13, 3-(4-fluoro-6-(piperazin-1-yl)pyridazin-3-yl)piperidine-2,6-dione hydrochloride salt]
IC50 [1]: 50 µM

N#Cc1cc(N2CCNCC2)nnc1C1CCC(=O)NC1=O (stereo not shown) [Compound 14, 3-(2,6-dioxopiperidin-3-yl) -6-(piperazin-1-yl)pyridazine-4-carbonitrile hydrochloride salt]
IC50 [1]: 50 µM

O=C1CCC(c2nnc(N3CCNCC3)cc2C(F)(F)F)C(=O)N1 (stereo not shown) [Compound 15, 3-(6-(piperazin-1-yl)-4-(trifluoromethyl)pyridazin-3-yl)piperidine-2,6-dione hydrochloride salt]
IC50 [1]: 50 µM

COc1cc(N2CCNCC2)nnc1C1CCC(=O)NC1=O (stereo not shown) [Compound 16, 3-(4-methoxy-6-(piperazin-1-yl)pyridazin-3-yl)piper idine-2,6-dione hydrochloride salt]
IC50 [1]: 50 µM

Nc1cc(N2CCNCC2)nnc1C1CCC(=O)NC1=O (stereo not shown) [Compound 17, 3-(4-amino-6-(piperazin-1-yl)pyridazin-3-yl)piperidine-2,6-dione hydrochloride salt]
IC50 [1]: 50 µM

CN(C)Cc1cc(N2CCNCC2)nnc1C1CCC(=O)NC1=O (stereo not shown) [Compound 18, 3-(4-((dimethylamino)methyl)-6-(piperazin-1-yl)pyridazin-3-yl)piperidine-2,6-dionebis hydrochloride salt]
IC50 ([1]; read-out: IC50): > 50 µM and 100 µM

O=C1CCC(c2nnc(N3CCNCC3)cc2-c2ccccc2)C(=O)N1 (stereo not shown) [Compound 19, 3-(4-phenyl-6-(piperazin-1-yl)pyridazin-3-yl)piperidine-2,6-dione hydrochloride salt]
IC50 [1]: > 100 µM

O=C1CCC(c2nnc(N3CCNCC3)cc2-c2ccncc2)C(=O)N1 (stereo not shown) [Compound 20, 3-(6-(piperazin-1-yl)-4-(pyridin-4-yl)pyridazin-3-yl)pi peridine-2,6-dione hydrochloride salt]
IC50 [1]: > 100 µM

Cc1cc(C2CCC(=O)NC2=O)nnc1N1CCNCC1 (stereo not shown) [Compound 21, 3-(5-methyl-6-(piperazin-1-yl)pyridazin-3-yl)piperidine-2,6-dione hydrochloride salt]
IC50 [1]: 50 µM

Cc1sc2c(c1C)C(c1ccc(Cl)cc1)=N[C@@H](CC(=O)NCCCCNC(=O)COc1ccc(C3CCC(=O)NC3=O)nn1)c1nnc(C)n1-2 (stereo partly shown) [PRTB-01]
DC50 [2]: 1 to 10 µM
Dmax [2]: < 50%

Cc1sc2c(c1C)C(c1ccc(Cl)cc1)=N[C@@H](CC(=O)NCCCCCNC(=O)COc1ccc(C3CCC(=O)NC3=O)nn1)c1nnc(C)n1-2 (stereo partly shown) [PRTB-02]
DC50 [2]: < 1 µM
Dmax [2]: > 85%

Cc1sc2c(c1C)C(c1ccc(Cl)cc1)=N[C@@H](CC(=O)NCCCCCCNC(=O)COc1ccc(C3CCC(=O)NC3=O)nn1)c1nnc(C)n1-2 (stereo partly shown) [PRTB-03]
DC50 [2]: 1 to 10 µM
Dmax [2]: < 50%

Cc1sc2c(c1C)C(c1ccc(Cl)cc1)=N[C@@H](CC(=O)NCCCC(=O)N1CCN(c3ccc(C4CCC(=O)NC4=O)nn3)CC1)c1nnc(C)n1-2 (stereo partly shown) [PRTB-04]
DC50 [2]: 1 to 10 µM
Dmax [2]: < 50%

Cc1sc2c(c1C)C(c1ccc(Cl)cc1)=N[C@@H](CC(=O)NCCCCC(=O)N1CCN(c3ccc(C4CCC(=O)NC4=O)nn3)CC1)c1nnc(C)n1-2 (stereo partly shown) [PRTB-05]
DC50 [2]: 1 to 10 µM
Dmax [2]: < 50%

Cc1sc2c(c1C)C(c1ccc(Cl)cc1)=N[C@@H](CC(=O)NCCOCC(=O)N1CCN(c3ccc(C4CCC(=O)NC4=O)nn3)CC1)c1nnc(C)n1-2 (stereo partly shown) [PRTB-06]
DC50 [2]: 1 to 10 µM
Dmax [2]: 50 to 85%

Cc1sc2c(c1C)C(c1ccc(Cl)cc1)=N[C@@H](CC(=O)NCCCOCC(=O)N1CCN(c3ccc(C4CCC(=O)NC4=O)nn3)CC1)c1nnc(C)n1-2 (stereo partly shown) [PRTB-07]
DC50 [2]: > 10 µM
Dmax [2]: < 50%

Cc1sc2c(c1C)C(c1ccc(Cl)cc1)=N[C@@H](CC(=O)NCCOCC(=O)N1CCN(c3ccc(N4CCC(=O)NC4=O)nn3)CC1)c1nnc(C)n1-2 [PRTB-08]
DC50 [2]: 1 to 10 µM
Dmax [2]: 50 to 85%

Cc1cc(N2CCN(C(=O)COCCNC(=O)C[C@@H]3N=C(c4ccc(Cl)cc4)c4c(sc(C)c4C)-n4c(C)nnc43)CC2)nnc1C1CCC(=O)NC1=O (stereo partly shown) [PRTB-09]
DC50 [2]: 1 to 10 µM
Dmax [2]: 50 to 85%

Cc1sc2c(c1C)C(c1ccc(Cl)cc1)=N[C@@H](CC(=O)NCCOCC(=O)N1CCN(c3nnc(C4CCC(=O)NC4=O)c4c3CCCC4)CC1)c1nnc(C)n1-2 (stereo partly shown) [PRTB-10]
DC50 [2]: > 10 µM
Dmax [2]: < 50%

Cc1sc2c(c1C)C(c1ccc(Cl)cc1)=N[C@@H](CC(=O)NCCOCC(=O)N1CCN(c3nnc(C4CCC(=O)NC4=O)c4ccccc34)CC1)c1nnc(C)n1-2 (stereo partly shown) [PRTB-11]
DC50 [2]: > 10 µM
Dmax [2]: < 50%

Cc1sc2c(c1C)C(c1ccc(Cl)cc1)=N[C@@H](CC(=O)NCCCCCOC1CN(c3ccc(C4CCC(=O)NC4=O)nn3)C1)c1nnc(C)n1-2 (stereo partly shown) [PRTB-12]
DC50 [2]: < 1 µM
Dmax [2]: > 85%

Cc1sc2c(c1C)C(c1ccc(Cl)cc1)=N[C@@H](CC(=O)NCCCCCNC(=O)C#Cc1ccc(C3CCC(=O)NC3=O)nn1)c1nnc(C)n1-2 (stereo partly shown) [PRTB-13]
DC50 [2]: < 1 µM
Dmax [2]: > 85%

Cc1sc2c(c1C)C(c1ccc(Cl)cc1)=N[C@@H](CC(=O)NCCCn1ccc(C#Cc3ccc(C4CCC(=O)NC4=O)nn3)n1)c1nnc(C)n1-2 (stereo partly shown) [PRTB-14]
DC50 [2]: < 1 µM
Dmax [2]: 50 to 85%

Cc1sc2c(c1C)C(c1ccc(Cl)cc1)=N[C@@H](CC(=O)NCCCn1cc(C#Cc3ccc(C4CCC(=O)NC4=O)nn3)cn1)c1nnc(C)n1-2 (stereo partly shown) [PRTB-15]
DC50 [2]: < 1 µM
Dmax [2]: > 85%

COc1nnc(C2CCC(=O)NC2=O)cc1N1CCN(C(=O)COCCNC(=O)C[C@@H]2N=C(c3ccc(Cl)cc3)c3c(sc(C)c3C)-n3c(C)nnc32)CC1 (stereo partly shown) [PRTB-16]
DC50 [2]: > 10 µM
Dmax [2]: < 50%
